This note sets out measurements from US20100009014A1, “Use of composition for manufacture of medicant and method for inhibiting formation of body fat” (Maxluck Biotechnology Corp., priority 2008, published 2010).

The assay in a line: Epididymal fat weight and body weight, lactoferrin vs trivalent chromium vs combination (Test Example 5). It is filed as in vivo, C57BL/6JNarl mice. Conditions: fed 7 weeks; for Body weight / Epididymal fat weight: high-fat diet. How it is done:
The C57BL/6JNarl mice (N=70) are fed with a mouse diet (high-fat Rodent TestDiet, PMI Nutrition International Inc., MO, U.S.A.; 67% of calories provided by fat). The C57BL/6JNarl mice are randomly divided into seven groups and there are ten mice in each group. In one experimental group, the mice are fed with the mouse diet mixed with lactoferrin (NZMP lactoferrin, New Zealand, low dose: 40 mg/kg BW/day, high dose: 80 mg/kg BW/day). In another experimental group, the mice are fed with the mouse diet mixed with trivalent chromium (chromium (III) chloride hexahydrate, low dose: 40 μg/kg BW/day Cr^3+, high dose: 80 μg/kg BW/day Cr^3+). In yet another experimental group, the mice are fed with the mouse diet mixed with a lactoferrin/trivalent chromium composition (low dose: lactoferrin of 40 mg/kg BW/day with Cr^3+ of 40 μg/kg BW/day, high dose: lactoferrin of 80 mg/kg BW/day with Cr^3+ of 80 μg/kg BW/day). In the control group, the mice are fed with the mouse diet containing no other additive. The C57BL/6JNarl mice aged 8 weeks are fed for 7 weeks and then sacrificed to measure the weight of Epididymal fat and body weight, as shown in Table 5.
Accordingly, it can be known that the lactoferrin/trivalent chromium composition provides more significant efficiency in comparison to single lactoferrin or trivalent chromium.

[1] abbreviates: High dose (lactoferrin 80 mg/kg BW/day and/or Cr3+ 80 μg/kg BW/day).
Where [2] appears, read: Low dose (lactoferrin 40 mg/kg BW/day and/or Cr3+ 40 μg/kg BW/day).

Structures are written as SMILES.

As for `O.O.O.O.O.O.[Cl][Cr]([Cl])[Cl]` [Trivalent Chromium, chromium (III) chloride hexahydrate], the “Epididymal fat weight and body weight vs control group (in words)” value is reported as “cannot achieve significant efficiency”. For the same compound, under setting [1], the Body weight is given as 27.7 ± 1.35 g and the Epididymal fat weight worked out at 0.82 ± 0.2 g. Moreover, under setting [2], the Body weight is given as 27.8 ± 1.33 g and the Epididymal fat weight was determined as 0.78 ± 0.16 g.
